How the values were obtained:
Format in all cases: biochemical
[1] = biological target: JAK1-JH1JH2 (Homo sapiens (Human), UniProt P23458); test: Enzymatic inhibition assay (RapidFire HTMS), JAK1; conditions: 12.5 μM ATP, 200 μM substrate; read-out: JAK1-JH2JH1 IC50
In short: (§1)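 Quenched with 0.5% TFA plus internal-standard peptide; phosphorylated product quantified by RapidFire C4 SPE–ESI-MS, 11-point 1:3 or 1:4 dilutions in duplicate.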

[2] = biological target: Tyk2-JH1JH2 (Homo sapiens (Human), UniProt P29597, C1142A/C936A); test: Enzymatic inhibition assay (RapidFire HTMS), Tyk2; conditions: 50 μM ATP, 200 μM substrate
Tyk2-JH1JH2, sequence (P29597 580-1182 C936A/C1142A): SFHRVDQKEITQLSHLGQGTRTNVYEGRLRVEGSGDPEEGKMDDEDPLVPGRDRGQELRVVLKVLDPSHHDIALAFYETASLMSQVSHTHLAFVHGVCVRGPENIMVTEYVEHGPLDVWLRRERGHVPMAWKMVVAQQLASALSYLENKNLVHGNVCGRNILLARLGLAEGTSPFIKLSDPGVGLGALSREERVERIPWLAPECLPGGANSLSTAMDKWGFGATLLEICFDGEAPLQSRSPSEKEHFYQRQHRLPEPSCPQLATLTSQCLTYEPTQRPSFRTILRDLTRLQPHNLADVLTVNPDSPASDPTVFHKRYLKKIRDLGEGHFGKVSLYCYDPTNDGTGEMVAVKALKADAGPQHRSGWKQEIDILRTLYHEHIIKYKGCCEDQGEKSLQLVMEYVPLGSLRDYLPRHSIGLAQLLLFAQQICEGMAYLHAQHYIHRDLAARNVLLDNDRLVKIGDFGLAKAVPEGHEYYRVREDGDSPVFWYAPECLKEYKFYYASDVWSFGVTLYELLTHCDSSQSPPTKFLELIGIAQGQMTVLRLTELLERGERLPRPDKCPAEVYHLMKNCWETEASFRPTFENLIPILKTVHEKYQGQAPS
In short: as §1

[3] = biological target: JAK2-JH1JH2 (Homo sapiens (Human), UniProt O60674); test: Enzymatic inhibition assay (RapidFire HTMS), JAK2; conditions: 30 μM ATP, 40 μM substrate
JAK2-JH1JH2, sequence (O60674 532-1132): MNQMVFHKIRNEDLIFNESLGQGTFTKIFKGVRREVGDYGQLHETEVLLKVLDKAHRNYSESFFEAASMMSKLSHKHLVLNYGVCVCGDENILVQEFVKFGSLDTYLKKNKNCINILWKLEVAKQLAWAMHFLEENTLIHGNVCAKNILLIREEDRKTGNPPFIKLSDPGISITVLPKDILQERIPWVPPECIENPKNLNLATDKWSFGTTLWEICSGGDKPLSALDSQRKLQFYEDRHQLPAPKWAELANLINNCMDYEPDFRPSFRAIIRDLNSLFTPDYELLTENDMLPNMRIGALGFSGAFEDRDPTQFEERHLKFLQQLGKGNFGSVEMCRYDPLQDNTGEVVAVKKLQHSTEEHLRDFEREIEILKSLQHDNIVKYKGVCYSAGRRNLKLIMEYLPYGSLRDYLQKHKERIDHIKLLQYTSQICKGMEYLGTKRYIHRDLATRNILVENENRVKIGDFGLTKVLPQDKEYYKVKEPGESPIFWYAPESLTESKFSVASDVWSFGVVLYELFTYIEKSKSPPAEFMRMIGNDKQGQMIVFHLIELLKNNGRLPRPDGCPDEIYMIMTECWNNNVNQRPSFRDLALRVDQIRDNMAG
In short: as §1

[4] = biological target: JAK3-JH1JH2 (Homo sapiens (Human), UniProt P52333); test: Enzymatic inhibition assay (RapidFire HTMS), JAK3; conditions: 150 μM ATP, 40 μM substrate
JAK3-JH1JH2, sequence (P52333 512-1124): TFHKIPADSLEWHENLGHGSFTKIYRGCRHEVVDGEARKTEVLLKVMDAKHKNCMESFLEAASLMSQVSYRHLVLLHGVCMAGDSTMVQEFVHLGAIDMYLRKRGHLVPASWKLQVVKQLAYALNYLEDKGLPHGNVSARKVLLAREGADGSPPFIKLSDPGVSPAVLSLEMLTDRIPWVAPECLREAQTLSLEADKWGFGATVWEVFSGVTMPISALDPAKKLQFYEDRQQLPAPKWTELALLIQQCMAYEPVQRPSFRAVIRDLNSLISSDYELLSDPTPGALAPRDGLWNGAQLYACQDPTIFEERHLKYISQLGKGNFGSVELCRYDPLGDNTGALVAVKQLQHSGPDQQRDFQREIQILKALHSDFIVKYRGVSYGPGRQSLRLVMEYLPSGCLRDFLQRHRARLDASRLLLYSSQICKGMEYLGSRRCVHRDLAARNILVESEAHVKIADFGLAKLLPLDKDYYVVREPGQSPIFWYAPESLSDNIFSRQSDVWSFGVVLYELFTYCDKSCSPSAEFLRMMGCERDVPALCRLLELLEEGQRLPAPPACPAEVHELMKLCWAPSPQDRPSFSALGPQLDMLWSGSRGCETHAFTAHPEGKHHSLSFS
In short: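 JAK3 JH1JH2 reaction incubated 45 min at 25 °C, then quenched with 0.5% TFA containing 0.15 μM internal standard peptide. Phosphopeptide product measured by RapidFire C4 SPE–ESI MS (positive mode); inhibition from product decrease versus uninhibited enzyme, 11-point 1:3 or 1:4 dilutions in duplicate.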

JAK1-JH1JH2, sequence (P23458 574-1154): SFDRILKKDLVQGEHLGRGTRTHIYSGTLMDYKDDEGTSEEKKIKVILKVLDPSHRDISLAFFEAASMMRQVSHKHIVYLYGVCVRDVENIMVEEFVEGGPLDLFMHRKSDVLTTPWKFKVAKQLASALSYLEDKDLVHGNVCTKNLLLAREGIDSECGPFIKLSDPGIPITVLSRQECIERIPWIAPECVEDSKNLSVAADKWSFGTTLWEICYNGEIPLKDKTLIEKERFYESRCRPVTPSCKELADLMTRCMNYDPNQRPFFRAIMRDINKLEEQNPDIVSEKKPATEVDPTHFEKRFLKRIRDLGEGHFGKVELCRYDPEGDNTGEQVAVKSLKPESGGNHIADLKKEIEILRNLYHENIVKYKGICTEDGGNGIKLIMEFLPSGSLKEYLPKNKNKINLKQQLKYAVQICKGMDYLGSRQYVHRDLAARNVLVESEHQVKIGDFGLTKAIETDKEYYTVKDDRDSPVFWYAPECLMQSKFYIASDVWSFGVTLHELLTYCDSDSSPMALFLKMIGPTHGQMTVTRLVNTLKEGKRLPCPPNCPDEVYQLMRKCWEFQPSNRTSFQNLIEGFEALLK

Which results are given for COC(C)(C)CNC(=O)Cc1nc2cnc3[nH]ccc3c2n1[C@H]1CC[C@H](CC#N)CC1 [Ex. 71, 2-(1-((1r,4r)-4-(Cyanomethyl)cyclohexyl)-1,6-dihydroimidazo[4,5-d]pyrrolo[2,3-b]pyridin-2-yl)-N-(2-methoxy-2-methylpropyl)acetamide]?
IC50 [1]: 0.0002 µM; IC50 [2]: 0.0033 µM; IC50 [3]: 0.0034 µM; IC50 [4]: 0.0542 µM

Cc1c[nH]c2ncc3nc(CC(=O)NCC(C)(C)O)n([C@H]4CC[C@H](CC#N)CC4)c3c12 [Ex. 190, 2-(1-((1r,4r)-4-(cyanomethyl)cyclohexyl)-8-methyl-1,6-dihydroimidazo[4,5-d]pyrrolo[2,3-b]pyridin-2-yl)-N-(2-hydroxy-2-methylpropyl)acetamide] was tested. Which IC50 [1] did it give?
The IC50 was 0.0124 µM.

And the IC50 [2]?
The IC50 was 0.458 µM.

What about the IC50 [3] of the same compound?
The IC50 was 0.149 µM.

What about the IC50 [4] of the same compound?
The IC50 was 0.102 µM.

N#CC[C@H]1CC[C@H](n2c(CC(=O)NCC(O)CO)nc3cnc4[nH]ccc4c32)CC1 (some centres unmarked) [Ex. 106, 2-(1-((1r,4r)-4-(Cyanomethyl)cyclohexyl)-1,6-dihydroimidazo[4,5-d]pyrrolo[2,3-b]pyridin-2-yl)-N-(2,3-dihydroxypropyl)acetamide] was tested. Which IC50 [1] did it give?
Its IC50 is 0.0006 µM.

What about the IC50 [2] of the same compound?
Its IC50 is 0.0112 µM.

What about the IC50 [3] of the same compound?
Its IC50 is 0.0143 µM.

And the IC50 [4]?
The IC50 was 0.149 µM.

Which IC50 [1] does the source give for N#CC[C@H]1CC[C@H](n2c(C(=O)NC3COC3)nc3cnc4[nH]ccc4c32)CC1 [Ex. 122, 1-((1r,4r)-4-(Cyanomethyl)cyclohexyl)-N-(oxetan-3-yl)-1,6-dihydroimidazo[4,5-d]pyrrolo[2,3-b]pyridine-2-carboxamide] here?
The IC50 was 0.0007 µM.

And the IC50 [2]?
Its IC50 is 0.0216 µM.

What about the IC50 [3] of the same compound?
Its IC50 is 0.0208 µM.

What about the IC50 [4] of the same compound?
The IC50 was 0.437 µM.

Which results are given for CC(C)(O)CC(=O)NCc1nc2cnc3[nH]ccc3c2n1[C@H]1CC[C@H](CC#N)CC1 [Ex. 116, N-((1-((1r,4r)-4-(Cyanomethyl)cyclohexyl)-1,6-dihydroimidazo[4,5-d]pyrrolo[2,3-b]pyridin-2-yl)methyl)-3-hydroxy-3-methylbutanamide]?
IC50 [1]: 0.0006 µM; IC50 [2]: 0.0509 µM; IC50 [3]: 0.0867 µM; IC50 [4]: 1.19 µM

What does the source list for Cc1cc2c(ncc3nc(CC(=O)NCC(C)(C)O)n([C@H]4CC[C@H](CC#N)CC4)c32)[nH]1 [Ex. 191, 2-(1-((1r,4r)-4-(Cyanomethyl)cyclohexyl)-7-methyl-1,6-dihydroimidazo[4,5-d]pyrrolo[2,3-b]pyridin-2-yl)-N-(2-hydroxy-2-methylpropyl)acetamide]?
IC50 [1]: 0.0013 µM; IC50 [2]: 0.0206 µM; IC50 [3]: 0.0573 µM; IC50 [4]: 1.34 µM

For N#CC[C@H]1CC[C@H](n2c(CC(=O)N[C@H]3CC[C@H](O)CC3)nc3cnc4[nH]ccc4c32)CC1 [Ex. 33, 2-(1-((1r,4r)-4-(Cyanomethyl)cyclohexyl)-1,6-dihydroimidazo[4,5-d]pyrrolo[2,3-b]pyridin-2-yl)-N-((1r,4r)-4-hydroxycyclohexyl)acetamide], which IC50 [1] is on record?
Its IC50 is 0.0002 µM.

What about the IC50 [2] of the same compound?
The IC50 was 0.0038 µM.

What about the IC50 [3] of the same compound?
Its IC50 is 0.0023 µM.

What about the IC50 [4] of the same compound?
Its IC50 is 0.038 µM.

With CC1(C)CCC(NC(=O)Cc2nc3cnc4[nH]ccc4c3n2[C@H]2CC[C@H](CC#N)CC2)CC1 [Ex. 65, 2-(1-((1r,4r)-4-(Cyanomethyl)cyclohexyl)-1,6-dihydroimidazo[4,5-d]pyrrolo[2,3-b]pyridin-2-yl)-N-(4,4-dimethylcyclohexyl)acetamide] as the compound, how does the IC50 [1] read?
The IC50 was 0.0003 µM.

What about the IC50 [2] of the same compound?
Its IC50 is 0.0117 µM.

And the IC50 [3]?
Its IC50 is 0.007 µM.

What about the IC50 [4] of the same compound?
Its IC50 is 0.0815 µM.

With CC(C)COC(=O)NCc1nc2cnc3[nH]ccc3c2n1[C@H]1CC[C@H](CC#N)CC1 [Ex. 137, Isobutyl ((1-((1r,4r)-4-(Cyanomethyl)cyclohexyl)-1,6-dihydroimidazo[4,5-d]pyrrolo[2,3-b]pyridin-2-yl)methyl)carbamate] as the compound, how does the IC50 [1] read?
The IC50 was 0.0009 µM.

And the IC50 [2]?
The IC50 was 0.0142 µM.

What about the IC50 [3] of the same compound?
The IC50 was 0.0251 µM.

What about the IC50 [4] of the same compound?
The IC50 was 0.28 µM.

How did the IC50 [1] turn out when N#CC[C@H]1CC[C@H](n2c(CC(=O)N3CCCC3)nc3cnc4[nH]ccc4c32)CC1 [Ex. 49, 2-((1r,4r)-4-(2-(2-Oxo-2-(pyrrolidin-1-yl)ethyl)imidazo[4,5-d]pyrrolo[2,3-b]pyridin-1(6H)-yl)cyclohexyl)acetonitrile] was run?
Its IC50 is 0.0002 µM.

And the IC50 [2]?
The IC50 was 0.0042 µM.

What about the IC50 [3] of the same compound?
The IC50 was 0.0435 µM.

What about the IC50 [4] of the same compound?
Its IC50 is 0.249 µM.

What does the source list for CCOC(=O)Cn1cc(-c2nc3cnc4[nH]ccc4c3n2[C@H]2CC[C@H](CC#N)CC2)cn1 [Ex. 182, Ethyl 2-(4-(1-((1r,4r)-4-(cyanomethyl)cyclohexyl)-1,6-dihydroimidazo[4,5-d]pyrrolo[2,3-b]pyridin-2-yl)-1H-pyrazol-1-yl)acetate]?
IC50 [1]: 0.0028 µM; IC50 [2]: 0.0525 µM; IC50 [3]: 0.0243 µM; IC50 [4]: 0.276 µM

With N#CC[C@H]1CC[C@H](n2c(CC(=O)NCc3ccncn3)nc3cnc4[nH]ccc4c32)CC1 [Ex. 14, 2-(1-((1r,4r)-4-(Cyanomethyl)cyclohexyl)-1,6-dihydroimidazo[4,5-d]pyrrolo[2,3-b]pyridin-2-yl)-N-(pyrimidin-4-ylmethyl)acetamide] as the compound, how does the IC50 [1] read?
The IC50 was 0.0001 µM.

And the IC50 [2]?
The IC50 was 0.0028 µM.

And the IC50 [3]?
The IC50 was 0.0018 µM.

And the IC50 [4]?
Its IC50 is 0.0437 µM.

With N#CC[C@H]1CC[C@H](n2c(C(=O)NCC3(O)COC3)nc3cnc4[nH]ccc4c32)CC1 [Ex. 80, 1-((1r,4r)-4-(Cyanomethyl)cyclohexyl)-N-((3-hydroxyoxetan-3-yl)methyl)-1,6-dihydroimidazo[4,5-d]pyrrolo[2,3-b]pyridine-2-carboxamide] as the compound, how does the IC50 [1] read?
Its IC50 is 0.0004 µM.

What about the IC50 [2] of the same compound?
The IC50 was 0.0041 µM.

And the IC50 [3]?
Its IC50 is 0.0021 µM.

What about the IC50 [4] of the same compound?
Its IC50 is 0.0897 µM.

With Cc1nc(C)c(-c2nc3cnc4[nH]ccc4c3n2[C@H]2CC[C@H](CC#N)CC2)o1 [Ex. 183, 2-((1r,4r)-4-(2-(2,4-dimethyloxazol-5-yl)imidazo[4,5-d]pyrrolo[2,3-b]pyridin-1(6H)-yl)cyclohexyl)acetonitrile] as the compound, how does the IC50 [1] read?
Its IC50 is 0.0043 µM.

What about the IC50 [2] of the same compound?
Its IC50 is 0.118 µM.

And the IC50 [3]?
The IC50 was 0.0529 µM.

And the IC50 [4]?
Its IC50 is 0.645 µM.

What does the source list for N#CC[C@H]1CC[C@H](n2c(CC(=O)NC3CCSCC3)nc3cnc4[nH]ccc4c32)CC1 [Ex. 83, 2-(1-((1r,4r)-4-(Cyanomethyl)cyclohexyl)-1,6-dihydroimidazo[4,5-d]pyrrolo[2,3-b]pyridin-2-yl)-N-(tetrahydro-2H-thiopyran-4-yl)acetamide]?
IC50 [1]: 0.0004 µM; IC50 [2]: 0.0094 µM; IC50 [3]: 0.0041 µM; IC50 [4]: 0.03 µM

Which IC50 [1] does the source give for N#CC[C@H]1CC[C@H](n2c(CC(=O)N3CCC(N4CCOCC4)CC3)nc3cnc4[nH]ccc4c32)CC1 [Ex. 26, 2-((1r,4r)-4-(2-(2-(4-Morpholinopiperidin-1-yl)-2-oxoethyl)imidazo[4,5-d]pyrrolo[2,3-b]pyridin-1(6H)-yl)cyclohexyl)acetonitrile] here?
Its IC50 is 0.0001 µM.

And the IC50 [2]?
The IC50 was 0.0027 µM.

And the IC50 [3]?
The IC50 was 0.0061 µM.

And the IC50 [4]?
The IC50 was 0.106 µM.

What does the source list for N#CC[C@H]1CC[C@H](n2c(-c3cnn(Cc4cocn4)c3)nc3cnc4[nH]ccc4c32)CC1 [Ex. 166, 2-((1r,4r)-4-(2-(1-(Oxazol-4-ylmethyl)-1H-pyrazol-4-yl)imidazo[4,5-d]pyrrolo[2,3-b]pyridin-1(6H)-yl)cyclohexyl)acetonitrile]?
IC50 [1]: 0.0018 µM; IC50 [2]: 0.0373 µM; IC50 [3]: 0.017 µM; IC50 [4]: 0.144 µM

Which IC50 [1] does the source give for CC(C)(O)CNC(=O)Cc1nc2cnc3[nH]cc(Cl)c3c2n1[C@H]1CC[C@H](CC#N)CC1 [Ex. 188, 2-(8-chloro-1-((1r,4r)-4-(cyanomethyl)cyclohexyl)-1,6-dihydroimidazo[4,5-d]pyrrolo[2,3-b]pyridin-2-yl)-N-(2-hydroxy-2-methylpropyl)acetamide] here?
The IC50 was 0.0032 µM.

And the IC50 [2]?
The IC50 was 0.122 µM.

And the IC50 [3]?
The IC50 was 0.0367 µM.

What about the IC50 [4] of the same compound?
Its IC50 is 0.0131 µM.

CN1CCC(NC(=O)c2nc3cnc4[nH]ccc4c3n2[C@H]2CC[C@H](CC#N)CC2)CC1 [Ex. 84, 1-((1r,4r)-4-(Cyanomethyl)cyclohexyl)-N-(1-methylpiperidin-4-yl)-1,6-dihydroimidazo[4,5-d]pyrrolo[2,3-b]pyridine-2-carboxamide] was tested. Which IC50 [1] did it give?
Its IC50 is 0.0004 µM.

What about the IC50 [2] of the same compound?
Its IC50 is 0.0104 µM.

And the IC50 [3]?
Its IC50 is 0.0271 µM.

What about the IC50 [4] of the same compound?
Its IC50 is 1.12 µM.

[H]/N=C(/c1ccccc1)N(O)Cc1nc2cnc3[nH]ccc3c2n1[C@H]1CC[C@H](CC#N)CC1 [Ex. 17B, (Z)—N-((1-((1r,4r)-4-(Cyanomethyl)cyclohexyl)-1,6-dihydroimidazo[4,5-d]pyrrolo[23-b]pyridin-2-yl)methyl)-N-hydroxybenzimidamide] was tested. Which IC50 [1] did it give?
Its IC50 is 0.0005 µM.

And the IC50 [2]?
The IC50 was 0.0029 µM.

And the IC50 [3]?
Its IC50 is 0.0045 µM.

And the IC50 [4]?
Its IC50 is 0.102 µM.

For N#CC[C@H]1CC[C@H](n2c(CC(=O)NCC34CC5CC(CC(C5)C3)C4)nc3cnc4[nH]ccc4c32)CC1 [Ex. 199, N-((3R,5R,7R)-Adamantan-1-ylmethyl)-2-(1-((1r,4r)-4-(cyanomethyl)cyclohexyl)-1,6-dihydroimidazo[4,5-d]pyrrolo[2,3-b]pyridin-2-yl)acetamide], which IC50 [1] is on record?
The IC50 was less than 0.004 µM.

And the IC50 [2]?
Its IC50 is 0.0079 µM.

What about the IC50 [3] of the same compound?
Its IC50 is 0.0036 µM.

What about the IC50 [4] of the same compound?
Its IC50 is 0.109 µM.

For CC(C)(O)CN1CCC(c2nc3cnc4[nH]ccc4c3n2[C@H]2CC[C@H](CC#N)CC2)CC1 [Ex. 168, 2-((1r,4r)-4-(2-(1-(2-Hydroxy-2-methylpropyl)piperidin-4-yl)imidazo[4,5-d]pyrrolo[2,3-b]pyridin-1(6H)-yl)cyclohexyl)acetonitrile], which IC50 [1] is on record?
The IC50 was 0.002 µM.

What about the IC50 [2] of the same compound?
The IC50 was 0.0307 µM.

What about the IC50 [3] of the same compound?
The IC50 was 0.0342 µM.

And the IC50 [4]?
The IC50 was 1.57 µM.

Which results are given for N#CC[C@H]1CC[C@H](n2c(C(=O)N3CCOCC3)nc3cnc4[nH]ccc4c32)CC1 [Ex. 180, 2-((1r,4r)-4-(2-(Morpholine-4-carbonyl)imidazo[4,5-d]pyrrolo[2,3-b]pyridin-1(6H)-yl)cyclohexyl)acetonitrile]?
IC50 [1]: 0.0034 µM; IC50 [2]: 0.129 µM; IC50 [3]: 0.149 µM; IC50 [4]: 2.29 µM

From US10981911B2, “Imidazopyrrolopyridine as inhibitors of the JAK family of kinases” (Janssen Pharmaceutica NV, priority 2016, dated 2021)
